Experimental data from patent publication US11008314B2, “Compounds and methods for modulating interleukin-2-inducible t-cell kinase” (CORVUS PHARMACEUTICALS, INC., priority 2016, dated 2021).

Key:
Format in all cases: biochemical
ITK = ITK (Homo sapiens (Human), UniProt Q08881); test: IC50 against ITK
TXK = TXK (Homo sapiens (Human), UniProt P42681); test: IC50 against TXK; conditions: for TXK/ITK: ratio of TXK IC50 to ITK IC50
JAK3 = JAK3 (Homo sapiens (Human), UniProt P52333); test: IC50 against JAK3
Chain of JAK3 (P52333 whole entry, species assumed): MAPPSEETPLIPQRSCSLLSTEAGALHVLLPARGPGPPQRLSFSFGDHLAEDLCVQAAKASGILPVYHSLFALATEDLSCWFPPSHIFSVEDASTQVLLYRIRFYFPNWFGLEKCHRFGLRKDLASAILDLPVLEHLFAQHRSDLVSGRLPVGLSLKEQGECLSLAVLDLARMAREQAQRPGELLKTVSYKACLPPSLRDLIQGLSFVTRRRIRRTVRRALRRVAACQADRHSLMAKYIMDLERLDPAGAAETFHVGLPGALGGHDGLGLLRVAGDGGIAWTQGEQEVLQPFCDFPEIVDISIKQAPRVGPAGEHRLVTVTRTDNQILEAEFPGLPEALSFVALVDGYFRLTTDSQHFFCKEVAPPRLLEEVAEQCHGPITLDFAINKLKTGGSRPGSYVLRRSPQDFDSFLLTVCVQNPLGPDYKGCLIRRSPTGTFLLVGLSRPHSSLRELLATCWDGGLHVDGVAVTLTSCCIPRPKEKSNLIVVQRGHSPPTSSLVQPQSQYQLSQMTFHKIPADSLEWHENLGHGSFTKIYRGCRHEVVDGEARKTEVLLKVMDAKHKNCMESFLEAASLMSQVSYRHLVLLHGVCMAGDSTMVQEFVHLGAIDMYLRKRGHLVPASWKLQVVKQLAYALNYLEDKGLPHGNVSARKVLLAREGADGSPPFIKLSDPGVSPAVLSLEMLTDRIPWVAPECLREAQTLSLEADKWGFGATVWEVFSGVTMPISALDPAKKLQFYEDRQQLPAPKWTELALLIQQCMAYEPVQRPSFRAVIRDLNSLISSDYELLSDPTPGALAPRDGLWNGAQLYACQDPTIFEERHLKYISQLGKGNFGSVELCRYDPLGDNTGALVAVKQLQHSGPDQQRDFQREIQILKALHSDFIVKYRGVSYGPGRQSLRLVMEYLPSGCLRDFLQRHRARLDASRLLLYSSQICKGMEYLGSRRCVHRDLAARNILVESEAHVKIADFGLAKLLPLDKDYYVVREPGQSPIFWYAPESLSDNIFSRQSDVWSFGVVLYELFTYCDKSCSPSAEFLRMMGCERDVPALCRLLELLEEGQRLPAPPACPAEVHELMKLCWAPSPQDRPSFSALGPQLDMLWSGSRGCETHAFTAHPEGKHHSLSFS

BTK = BTK (Homo sapiens (Human), UniProt Q06187); test: IC50 against BTK
Chain of BTK (Q06187 whole entry, species assumed): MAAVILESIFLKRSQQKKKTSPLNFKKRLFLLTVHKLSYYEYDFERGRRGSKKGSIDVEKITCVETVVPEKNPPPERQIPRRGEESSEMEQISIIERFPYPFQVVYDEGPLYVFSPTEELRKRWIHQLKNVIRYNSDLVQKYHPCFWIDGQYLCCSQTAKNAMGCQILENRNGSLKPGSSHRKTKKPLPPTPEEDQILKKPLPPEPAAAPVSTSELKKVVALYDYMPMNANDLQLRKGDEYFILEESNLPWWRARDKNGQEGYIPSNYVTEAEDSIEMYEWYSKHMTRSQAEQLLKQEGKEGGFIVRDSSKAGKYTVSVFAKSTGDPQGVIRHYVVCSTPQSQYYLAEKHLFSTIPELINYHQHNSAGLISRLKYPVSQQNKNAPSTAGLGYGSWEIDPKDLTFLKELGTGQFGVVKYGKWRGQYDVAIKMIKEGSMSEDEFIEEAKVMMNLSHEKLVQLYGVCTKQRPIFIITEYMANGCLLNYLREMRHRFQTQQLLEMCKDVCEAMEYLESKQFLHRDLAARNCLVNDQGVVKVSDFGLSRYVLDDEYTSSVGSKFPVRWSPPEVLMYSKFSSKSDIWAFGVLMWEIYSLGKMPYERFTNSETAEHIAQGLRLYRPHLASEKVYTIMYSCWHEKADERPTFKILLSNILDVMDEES

Chain of TXK (P42681 whole entry, species assumed): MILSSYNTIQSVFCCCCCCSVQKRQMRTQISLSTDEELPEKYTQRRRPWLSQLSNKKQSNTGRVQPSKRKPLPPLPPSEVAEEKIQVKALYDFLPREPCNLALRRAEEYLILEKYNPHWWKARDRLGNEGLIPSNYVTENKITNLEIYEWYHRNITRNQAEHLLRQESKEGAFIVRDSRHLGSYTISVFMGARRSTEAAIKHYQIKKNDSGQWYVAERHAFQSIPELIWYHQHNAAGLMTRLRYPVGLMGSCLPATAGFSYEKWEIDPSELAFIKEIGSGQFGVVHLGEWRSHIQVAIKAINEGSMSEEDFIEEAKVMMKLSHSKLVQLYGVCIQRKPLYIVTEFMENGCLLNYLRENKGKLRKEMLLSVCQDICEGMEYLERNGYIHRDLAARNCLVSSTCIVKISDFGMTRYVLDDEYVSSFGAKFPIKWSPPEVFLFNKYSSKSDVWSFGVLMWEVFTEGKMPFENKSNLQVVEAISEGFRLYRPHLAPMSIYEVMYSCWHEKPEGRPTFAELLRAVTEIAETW
Chain of ITK (Q08881 whole entry): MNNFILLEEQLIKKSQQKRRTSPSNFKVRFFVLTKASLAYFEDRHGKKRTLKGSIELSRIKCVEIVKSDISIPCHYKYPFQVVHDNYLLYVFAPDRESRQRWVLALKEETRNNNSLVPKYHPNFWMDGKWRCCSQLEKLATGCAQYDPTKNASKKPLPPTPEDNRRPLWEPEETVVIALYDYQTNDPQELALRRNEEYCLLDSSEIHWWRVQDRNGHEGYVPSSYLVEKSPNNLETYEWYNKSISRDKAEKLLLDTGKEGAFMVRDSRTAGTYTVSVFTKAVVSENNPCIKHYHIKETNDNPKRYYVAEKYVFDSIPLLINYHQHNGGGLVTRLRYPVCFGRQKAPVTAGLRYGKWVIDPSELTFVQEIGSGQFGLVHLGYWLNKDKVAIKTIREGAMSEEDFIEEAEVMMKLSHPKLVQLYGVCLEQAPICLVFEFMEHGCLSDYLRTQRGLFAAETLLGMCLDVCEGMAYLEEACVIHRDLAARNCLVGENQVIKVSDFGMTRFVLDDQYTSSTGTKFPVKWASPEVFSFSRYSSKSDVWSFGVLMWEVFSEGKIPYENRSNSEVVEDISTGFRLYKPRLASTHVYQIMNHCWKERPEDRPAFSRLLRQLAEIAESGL

SMILES | IC50 (ITK) | IC50 (TXK) | TXK/ITK (TXK) | IC50 (JAK3) | IC50 (BTK)
C=CC(=O)N1CCN(C(=O)c2cc(Sc3cnc(NC(=O)c4ccc(N5CCN(C(=O)CCOCCOCCOCCOCCNC(=O)CCCCC6SCC7NC(=O)NC76)CC5)cc4)s3)c(C)cc2OC)CC1 (stereo not shown) [Compound 41] | < 10 nM | 10 to 100 nM | 21.91 | 10 to 100 nM | 10 to 100 nM
C=CC(=O)N1CC2(CCN(C(=O)c3cc(Sc4cnc(NC(=O)C5CC5)s4)c(C)cc3OC)C2)C1 [Compound 45] | < 10 nM | < 10 nM | 4.1551 | 10 to 100 nM | 10 to 100 nM
C=CC(=O)N1CCC2(C1)CN(C(=O)c1cc(Sc3cnc(NC(=O)C4CC4)s3)c(C)cc1OC)C2 [Compound 46] | < 10 nM | < 10 nM | 3.4072 | 100 to 1000 nM | 10 to 100 nM
C=CC(=O)N1CCCN(C(=O)c2cc(Sc3cnc(NC(=O)CC)s3)c(C)cc2OC)C[C@H]1C [Compound 47] | 10 to 100 nM | ≥ 10000 nM | 181.42 | ≥ 10000 nM | ≥ 10000 nM
C=CC(=O)N1CCCN(C(=O)c2cc(Sc3cnc(NC(=O)c4cccc(CN5CCOCC5)c4)s3)c(C)cc2OC)CC1 [Compound 49] | 10 to 100 nM | 1000 to 10000 nM | 37.652 | 1000 to 10000 nM | 1000 to 10000 nM
C=CC(=O)N1CCN(C(=O)c2cc(Sc3cnc(NC(=O)CC)s3)c(C)cc2OC)[C@@H](C)C1 [Compound 51] | < 10 nM | 10 to 100 nM | 14.645 | 1000 to 10000 nM | 100 to 1000 nM
C=CC(=O)N1CCN(C(=O)c2cc(Sc3cnc(NC(=O)C4CC4)s3)c(C)cc2OC)CC(F)C1 (stereo not shown) [Compound 55] | < 10 nM | < 10 nM | 6.2416 | 10 to 100 nM | 10 to 100 nM
C=CC(=O)N1CCCN(C(=O)c2cc(Sc3cnc(NC(=O)c4cccc(CN[C@H](C)C(C)(C)C)c4)s3)c(C)cc2OC)CC1 [Compound 56] | < 10 nM | 1000 to 10000 nM | 168.17 | 1000 to 10000 nM | 100 to 1000 nM
C=CC(=O)N1CCCN(C(=O)c2cc(Sc3cnc(NC(=O)C(C)(C)C)s3)c(C)cc2OC)CC1 [Compound 57] | 100 to 1000 nM | ≥ 10000 nM | 15.564 | ≥ 10000 nM | ≥ 10000 nM
C=CC(=O)N1CCCN(C(=O)c2cc(Sc3cnc(NC(=O)C4CC4)s3)c(C)cc2C)C[C@H]1C [Compound 59] | < 10 nM | 100 to 1000 nM | 166.05 | 1000 to 10000 nM | 1000 to 10000 nM

Other lines, results leading:

IC50 (ITK) | IC50 (TXK) | TXK/ITK (TXK) | IC50 (JAK3) | IC50 (BTK) | SMILES
< 10 nM | 10 to 100 nM | 10.152 | 1000 to 10000 nM | 1000 to 10000 nM | C=CC(=O)N1CCN(C(=O)c2cc(Sc3cnc(NC(=O)C4CC4)s3)c(C)cc2OC)C[C@H]1CC [Compound 42]
< 10 nM | < 10 nM | 3.4821 | 10 to 100 nM | 10 to 100 nM | C=CC(=O)N1CCN(C(=O)c2cc(Sc3cnc(NC(=O)C4CC4)s3)c(C)cc2OC)C[C@H]1C#N [Compound 43]
10 to 100 nM | ≥ 10000 nM | 519.55 | ≥ 10000 nM | 1000 to 10000 nM | C=CC(=O)N1CCCN(C(=O)c2cc(Sc3cnc(NC(=O)c4cccc(CN(C)C)c4)s3)c(C)cc2OC)C[C@H]1C [Compound 48]
< 10 nM | 100 to 1000 nM |  | 1000 to 10000 nM | 100 to 1000 nM | C=CC(=O)N1CCCN(C(=O)c2cc(Sc3cnc(NC(=O)C4CC4)s3)c(C)cc2OC)CCC1 [Compound 53]
10 to 100 nM | 10 to 100 nM | 0.804 | 1000 to 10000 nM | 1000 to 10000 nM | C=CC(=O)N1CCN(C(=O)c2cc(Sc3cnc(NC(=O)C4CC4)s3)c(C)cc2OC)CC[C@H]1C [Compound 54]
1000 to 10000 nM | 1000 to 10000 nM | 2.9749 | 1000 to 10000 nM | ≥ 10000 nM | C=CC(=O)N1CCCN(C(=O)c2cc(CSc3cnc(NC(=O)C4CC4)s3)cc(C)c2C)CC1 [Compound 58]
